{
  "source": "ChEMBL document CHEMBL1201862",
  "about": "“PubChem BioAssay data set” (2004)",
  "key": {"[1]": {"target": "T1, Aminopeptidase N (Plasmodium falciparum FcB1/Columbia, UniProt O96935)", "T1 sequence (O96935 whole entry)": "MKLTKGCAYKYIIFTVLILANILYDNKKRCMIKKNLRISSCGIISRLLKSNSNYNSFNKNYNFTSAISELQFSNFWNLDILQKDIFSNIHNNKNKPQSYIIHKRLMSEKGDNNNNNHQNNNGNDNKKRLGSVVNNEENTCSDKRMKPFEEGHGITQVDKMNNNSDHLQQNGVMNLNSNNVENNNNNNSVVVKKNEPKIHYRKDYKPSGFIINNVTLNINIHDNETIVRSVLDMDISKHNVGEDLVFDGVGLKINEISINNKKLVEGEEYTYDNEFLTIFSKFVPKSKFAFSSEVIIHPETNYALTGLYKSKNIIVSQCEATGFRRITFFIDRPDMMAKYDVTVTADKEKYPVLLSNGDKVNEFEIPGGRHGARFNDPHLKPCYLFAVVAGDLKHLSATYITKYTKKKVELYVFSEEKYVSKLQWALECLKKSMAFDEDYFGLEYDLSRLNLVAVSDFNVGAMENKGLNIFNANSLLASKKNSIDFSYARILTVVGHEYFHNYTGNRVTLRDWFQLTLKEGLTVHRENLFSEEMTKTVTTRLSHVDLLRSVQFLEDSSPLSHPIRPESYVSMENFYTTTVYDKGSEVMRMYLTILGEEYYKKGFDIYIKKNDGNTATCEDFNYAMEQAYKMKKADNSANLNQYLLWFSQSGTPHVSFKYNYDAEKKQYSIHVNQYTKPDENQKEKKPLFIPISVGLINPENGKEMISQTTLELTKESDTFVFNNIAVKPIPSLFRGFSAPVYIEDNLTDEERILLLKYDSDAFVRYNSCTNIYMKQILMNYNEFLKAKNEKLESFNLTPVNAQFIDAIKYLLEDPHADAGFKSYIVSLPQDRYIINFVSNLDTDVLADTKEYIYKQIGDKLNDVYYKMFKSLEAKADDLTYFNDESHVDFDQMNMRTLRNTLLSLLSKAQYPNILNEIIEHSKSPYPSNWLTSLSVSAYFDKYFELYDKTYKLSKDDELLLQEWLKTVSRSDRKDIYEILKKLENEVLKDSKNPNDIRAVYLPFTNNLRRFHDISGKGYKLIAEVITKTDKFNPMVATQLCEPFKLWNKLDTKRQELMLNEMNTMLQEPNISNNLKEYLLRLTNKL", "assay": "P. falciparum M1AAP inhibitors, biochemical, fluorogenic H-Leu-NHMec substrate, 1536-well (AID 1445)", "parameters": "species or system Plasmodium falciparum 3D7, 3D7"}, "[2]": {"target": "T2, Short transient receptor potential channel 4 (Mus musculus, UniProt Q9QUQ5)", "T2 sequence (Q9QUQ5 whole entry)": "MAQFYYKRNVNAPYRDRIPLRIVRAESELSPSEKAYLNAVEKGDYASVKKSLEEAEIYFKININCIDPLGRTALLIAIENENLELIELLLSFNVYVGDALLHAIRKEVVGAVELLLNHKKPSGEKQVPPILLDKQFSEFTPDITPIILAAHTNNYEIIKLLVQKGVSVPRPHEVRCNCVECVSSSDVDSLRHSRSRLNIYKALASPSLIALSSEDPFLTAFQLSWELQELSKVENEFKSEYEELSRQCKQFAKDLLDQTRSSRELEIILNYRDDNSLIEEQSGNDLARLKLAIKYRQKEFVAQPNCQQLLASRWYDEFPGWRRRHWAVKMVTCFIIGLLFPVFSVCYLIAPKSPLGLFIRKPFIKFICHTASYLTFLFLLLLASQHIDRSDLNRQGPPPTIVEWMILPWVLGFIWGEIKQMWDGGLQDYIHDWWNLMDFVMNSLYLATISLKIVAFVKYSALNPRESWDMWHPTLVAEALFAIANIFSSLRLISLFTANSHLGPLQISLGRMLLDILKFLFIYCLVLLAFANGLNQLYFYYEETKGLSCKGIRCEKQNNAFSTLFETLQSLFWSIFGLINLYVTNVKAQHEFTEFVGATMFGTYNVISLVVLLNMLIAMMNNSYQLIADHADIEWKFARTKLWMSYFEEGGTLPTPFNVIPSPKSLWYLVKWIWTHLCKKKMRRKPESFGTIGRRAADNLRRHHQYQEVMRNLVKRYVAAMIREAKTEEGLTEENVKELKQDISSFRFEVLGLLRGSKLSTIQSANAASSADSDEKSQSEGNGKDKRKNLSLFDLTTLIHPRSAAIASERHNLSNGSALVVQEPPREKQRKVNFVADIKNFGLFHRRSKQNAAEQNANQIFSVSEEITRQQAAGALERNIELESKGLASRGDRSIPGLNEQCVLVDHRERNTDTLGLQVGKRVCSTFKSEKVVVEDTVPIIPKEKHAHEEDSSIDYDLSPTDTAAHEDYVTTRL", "assay": "mouse TRPC4 channel inhibitors, dose response, cell-based, HEK293 TRPC4/mu-opioid, Fluo-4 calcium (AID 434942)", "type": "functional"}, "[3]": {"target": "DNA dC->dU-editing enzyme APOBEC-3A (Homo sapiens, UniProt P31941)", "sequence (P31941 whole entry)": "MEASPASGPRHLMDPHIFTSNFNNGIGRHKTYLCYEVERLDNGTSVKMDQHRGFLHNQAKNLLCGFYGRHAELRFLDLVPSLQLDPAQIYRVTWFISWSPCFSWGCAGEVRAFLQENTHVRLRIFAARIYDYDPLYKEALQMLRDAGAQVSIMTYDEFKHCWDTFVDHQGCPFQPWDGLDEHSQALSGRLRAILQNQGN", "assay": "Dose Response confirmation of small molecule APOBEC3A DNA Deaminase Inhibitors via a fluorescence-based single-stranded DNA deaminase assay. [Related pubchem assays (depositor defined):AID493011, AID493024]", "type": "functional"}, "[4]": {"target": "DNA dC->dU-editing enzyme APOBEC-3G (Homo sapiens, UniProt Q9HC16)", "sequence (Q9HC16 whole entry)": "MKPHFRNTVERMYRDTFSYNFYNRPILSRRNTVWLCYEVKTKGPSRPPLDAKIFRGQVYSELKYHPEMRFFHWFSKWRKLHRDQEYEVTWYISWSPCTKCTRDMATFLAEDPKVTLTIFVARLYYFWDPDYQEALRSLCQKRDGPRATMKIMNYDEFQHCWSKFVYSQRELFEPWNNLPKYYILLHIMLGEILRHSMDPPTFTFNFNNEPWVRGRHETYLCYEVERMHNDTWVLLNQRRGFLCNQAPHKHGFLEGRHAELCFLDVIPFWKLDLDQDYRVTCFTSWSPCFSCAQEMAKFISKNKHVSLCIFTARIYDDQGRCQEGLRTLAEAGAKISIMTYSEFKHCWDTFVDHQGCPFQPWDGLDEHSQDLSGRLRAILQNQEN", "type": "functional"}, "[5]": {"target": "T3, Carboxy-terminal domain RNA polymerase II polypeptide A small phosphatase 1 (Homo sapiens, UniProt Q9GZU7)", "T3 sequence (Q9GZU7 whole entry)": "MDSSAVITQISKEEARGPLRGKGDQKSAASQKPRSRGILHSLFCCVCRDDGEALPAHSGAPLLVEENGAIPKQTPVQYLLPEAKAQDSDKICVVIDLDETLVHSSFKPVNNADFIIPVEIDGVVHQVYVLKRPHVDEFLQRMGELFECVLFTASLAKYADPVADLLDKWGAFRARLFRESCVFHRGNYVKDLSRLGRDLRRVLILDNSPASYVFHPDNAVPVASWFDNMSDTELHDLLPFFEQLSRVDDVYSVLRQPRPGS", "assay": "inhibitors of CTDSP1, concentration-response testing, biochemical assay, absorbance-based, actives from ultra-high-throughput screening (AID 540297)", "type": "functional"}, "[6]": {"target": "T4, Leucine aminopeptidase (Plasmodium falciparum 3D7, UniProt Q8IL11)", "T4 sequence (Q8IL11 whole entry)": "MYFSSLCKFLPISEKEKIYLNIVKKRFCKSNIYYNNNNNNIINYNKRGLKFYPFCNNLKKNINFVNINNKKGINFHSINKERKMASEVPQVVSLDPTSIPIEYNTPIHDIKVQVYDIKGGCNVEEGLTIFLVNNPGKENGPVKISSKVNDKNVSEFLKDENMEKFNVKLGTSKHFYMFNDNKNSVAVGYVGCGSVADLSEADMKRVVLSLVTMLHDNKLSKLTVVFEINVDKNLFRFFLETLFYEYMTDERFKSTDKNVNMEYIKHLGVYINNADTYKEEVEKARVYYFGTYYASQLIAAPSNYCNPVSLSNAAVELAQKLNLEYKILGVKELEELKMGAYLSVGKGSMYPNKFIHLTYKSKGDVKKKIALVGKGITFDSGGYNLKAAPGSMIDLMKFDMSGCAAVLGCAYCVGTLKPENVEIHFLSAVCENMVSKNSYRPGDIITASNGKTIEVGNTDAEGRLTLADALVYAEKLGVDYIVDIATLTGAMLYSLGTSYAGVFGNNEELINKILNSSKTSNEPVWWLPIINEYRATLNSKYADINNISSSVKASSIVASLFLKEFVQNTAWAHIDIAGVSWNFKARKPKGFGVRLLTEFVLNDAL", "assay": "P. falciparum M17LAP inhibitors, primary screen, biochemical, fluorogenic H-Leu-NHMec substrate, 1536-well (AID 1619)", "type": "functional"}, "[7]": {"assay": "HEp-2 cell cytotoxicity, dose response, cytotoxicity control for RSV inhibitor project, HTS (AID 2410)", "type": "functional", "settings": "human respiratory syncytial virus"}, "[8]": {"target": "T5, Polyadenylate-binding protein 1 (Homo sapiens, UniProt P11940)", "T5 sequence (P11940 whole entry)": "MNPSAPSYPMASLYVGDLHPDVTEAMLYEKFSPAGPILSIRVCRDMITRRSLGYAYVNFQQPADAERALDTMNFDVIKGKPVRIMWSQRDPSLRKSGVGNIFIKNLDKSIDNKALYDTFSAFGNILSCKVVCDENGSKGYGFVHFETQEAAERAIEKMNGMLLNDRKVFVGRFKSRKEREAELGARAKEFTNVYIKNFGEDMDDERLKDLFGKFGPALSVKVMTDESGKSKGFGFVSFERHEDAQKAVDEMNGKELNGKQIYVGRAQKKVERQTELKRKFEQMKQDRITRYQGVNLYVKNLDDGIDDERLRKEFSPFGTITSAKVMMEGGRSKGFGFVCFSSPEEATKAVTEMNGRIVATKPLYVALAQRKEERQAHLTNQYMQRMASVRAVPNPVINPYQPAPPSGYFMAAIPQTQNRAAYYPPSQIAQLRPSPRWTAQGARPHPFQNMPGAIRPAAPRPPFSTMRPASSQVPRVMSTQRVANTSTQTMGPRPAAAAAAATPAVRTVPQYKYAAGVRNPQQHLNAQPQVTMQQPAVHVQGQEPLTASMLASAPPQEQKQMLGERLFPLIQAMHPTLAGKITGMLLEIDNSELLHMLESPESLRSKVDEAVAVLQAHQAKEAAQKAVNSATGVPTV", "assay": "PABP1 MLLE–PAM2 interaction inhibitors, dose response, miRNA deadenylation inhibitor project, biochemical, fluorescence polarization, Cy5-PAM2 peptide, secondary (AID 602260)", "type": "functional", "settings": "read-out: IC50_Mean"}, "[9]": {"target": "T5, Polyadenylate-binding protein 1", "assay": "PABP1 MLLE–PAM2 binding inhibitor potency, dose response, biochemical, fluorescence polarization, FITC-PAM2 peptide (AID 602259)", "type": "functional", "settings": "read-out: IC50_Mean"}, "[10]": {"tested_on": "HEK293", "assay": "inhibitors of LMP1-driven NF-kB reporter, dose response, cell-based, HEK293, luciferase, cherry-pick (AID 588343)", "type": "functional", "settings": "Homo sapiens"}, "[11]": {"target": "T2, Short transient receptor potential channel 4", "assay": "mouse TRPC4 channel activators, dose response, cell-based, HEK293 TRPC4/mu-opioid, Fluo-4 calcium (AID 434937)", "type": "functional"}, "[12]": {"tested_on": "HEK293", "assay": "NOD1 signaling inhibitors, primary screen, cell-based, luminescence, uHTS (AID 1578)", "type": "functional", "settings": "Homo sapiens"}, "[13]": {"tested_on": "HEK293", "assay": "cells", "type": "functional, cell-based", "settings": "Homo sapiens"}, "[14]": {"tested_on": "HEK293", "assay": "cells", "type": "functional, cell-based", "settings": "Homo sapiens", "remark": "listed apart in the source"}, "[15]": {"target": "Nucleotide-binding oligomerization domain-containing protein 2 (Homo sapiens, UniProt Q9HC29)", "sequence (Q9HC29 whole entry, the tested form may be a part)": "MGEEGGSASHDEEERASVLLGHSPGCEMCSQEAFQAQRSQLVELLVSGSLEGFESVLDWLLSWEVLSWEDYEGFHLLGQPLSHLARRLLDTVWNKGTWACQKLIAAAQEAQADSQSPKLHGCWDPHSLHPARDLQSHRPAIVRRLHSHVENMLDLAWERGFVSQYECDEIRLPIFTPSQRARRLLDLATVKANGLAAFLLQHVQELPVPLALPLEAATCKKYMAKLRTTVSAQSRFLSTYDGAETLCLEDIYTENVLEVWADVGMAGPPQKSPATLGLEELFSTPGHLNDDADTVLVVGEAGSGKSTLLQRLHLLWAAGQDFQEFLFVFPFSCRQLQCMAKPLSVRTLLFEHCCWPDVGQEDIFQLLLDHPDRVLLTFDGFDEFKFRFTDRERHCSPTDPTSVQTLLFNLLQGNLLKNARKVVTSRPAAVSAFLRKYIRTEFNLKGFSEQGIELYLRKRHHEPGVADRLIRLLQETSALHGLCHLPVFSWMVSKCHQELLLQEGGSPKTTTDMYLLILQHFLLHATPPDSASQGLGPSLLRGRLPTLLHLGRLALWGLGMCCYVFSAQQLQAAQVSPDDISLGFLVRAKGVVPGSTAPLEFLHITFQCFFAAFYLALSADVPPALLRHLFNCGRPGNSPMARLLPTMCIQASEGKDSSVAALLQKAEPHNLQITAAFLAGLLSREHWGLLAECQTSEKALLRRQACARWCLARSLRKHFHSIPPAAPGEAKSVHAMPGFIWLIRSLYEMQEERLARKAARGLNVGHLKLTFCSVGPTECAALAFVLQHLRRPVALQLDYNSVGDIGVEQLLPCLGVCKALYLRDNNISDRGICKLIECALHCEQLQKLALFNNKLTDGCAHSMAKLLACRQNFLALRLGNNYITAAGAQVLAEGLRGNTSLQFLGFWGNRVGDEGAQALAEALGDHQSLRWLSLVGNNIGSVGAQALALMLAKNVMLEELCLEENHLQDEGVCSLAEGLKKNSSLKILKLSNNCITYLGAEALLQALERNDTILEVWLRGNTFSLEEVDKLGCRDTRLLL", "assay": "NOD2 signaling inhibitors, cell-based, luminescence, uHTS, HEK293 (AID 1566)", "type": "functional"}, "[16]": {"tested_on": "HEK293", "assay": "NOD2 signaling inhibitors in MDP-stimulated cells, cell-based, uHTS, luminescence (AID 2001)", "type": "functional", "settings": "Homo sapiens"}, "[17]": {"tested_on": "HEK293", "assay": "cells", "type": "functional, cell-based", "settings": "Homo sapiens", "remark": "listed apart in the source"}},
  "note": "Calls of active or inactive are those of the source.",
  "data": [
    {"smiles": "O=C(O)c1ccc2c(c1)C1C=CCC1C(c1cc3c(cc1Br)OCO3)N2", "note": "(stereo not drawn)", "values": [
      {"measurement": "IC50", "setting": "[1]", "value": "11 µM (active)"}
    ]},
    {"smiles": "Cn1cccc1/C=C1\\SC(=S)N(NC(=O)c2ccccc2O)C1=O", "values": [
      {"measurement": "IC50", "setting": "[1]", "value": "44.6 µM (active)"}
    ]},
    {"smiles": "O=C(CN1CCCCC1)N=Nc1c(O)[nH]c2ccccc12", "values": [
      {"measurement": "EC50", "setting": "[2]", "value": "2.99 µM (active)"}
    ]},
    {"smiles": "COc1ccc(OC)c(NC(=O)C2C3C=CC(C3)C2C(=O)NCc2ccccn2)c1", "note": "(stereo not drawn)", "values": [
      {"measurement": "IC50", "setting": "[1]", "value": "89.5 µM (active)"}
    ]},
    {"smiles": "N#C/C(=C/c1ccc(OCc2ccc(C(=O)O)cc2)cc1)C(=O)Nc1ccccc1", "values": [
      {"measurement": "IC50", "setting": "[3]", "value": "1.75 µM (active)"},
      {"measurement": "IC50", "setting": "[4]", "value": "2.36 µM (active)"},
      {"measurement": "IC50", "setting": "[5]", "value": "5.32 µM (active)"}
    ]},
    {"smiles": "Cc1ccc(S(=O)(=O)CCSc2cccc(C(=O)Nc3ccccc3C(=O)O)c2)cc1", "values": [
      {"measurement": "IC50", "setting": "[6]", "value": "9.59 µM (active)"},
      {"measurement": "CC50", "setting": "[7]", "value": "13.5 µM (active)"},
      {"measurement": "IC50", "setting": "[1]", "value": "34.3 µM (active)"},
      {"measurement": "IC50", "setting": "[8]", "value": "> 66 µM (inactive)"},
      {"measurement": "IC50", "setting": "[9]", "value": "> 66 µM (inactive)"}
    ]},
    {"smiles": "CC1(C)CC(N2CCOCC2)=CC(=[N+]2CCOCC2)C1", "values": [
      {"measurement": "IC50", "setting": "[3]", "value": "2.59 µM (active)"},
      {"measurement": "IC50", "setting": "[4]", "value": "2.26 µM (active)"}
    ]},
    {"smiles": "Cc1cc(C)n(C2CCCCC2OC(=O)c2ccccc2F)n1", "note": "(stereo not drawn)", "values": [
      {"measurement": "AC50", "setting": "[10]", "value": "> 350 µM (inactive)"}
    ]},
    {"smiles": "Cc1c(C(=O)N(Cc2cccs2)C2CCS(=O)(=O)C2)oc2ccccc12", "note": "(stereo not drawn)", "values": [
      {"measurement": "EC50", "setting": "[2]", "value": "1.68 µM (active)"},
      {"measurement": "EC50", "setting": "[11]", "value": "2.11 µM (active)"}
    ]},
    {"smiles": "CC(=O)c1cccc(NS(=O)(=O)c2ccc(NC(=O)N3CCCCC3)cc2)c1", "values": [
      {"measurement": "EC50", "setting": "[12]", "value": "3.33 µM (active)"},
      {"measurement": "IC50", "setting": "[13]", "value": "14.3 µM (active)"},
      {"measurement": "IC50", "setting": "[14]", "value": "> 20 µM (inactive)"},
      {"measurement": "EC50", "setting": "[15]", "value": "15.6 µM (active)"},
      {"measurement": "IC50", "setting": "[16]", "value": "11.3 µM (inactive)"},
      {"measurement": "IC50", "setting": "[17]", "value": "> 20 µM (inactive)"}
    ]}
  ]
}
